One assay deals with RBL-2H3 cells. In words: Fluorescence-based assay of store-operated calcium entry in RBL-2H3 cells (FLIPR, thapsigargin). The settings on record: Fluo-4, Upslope 0-7 sec, read-out: FLIPR_CRAC: 9 pt CRC - Fluo4_TG-D: RBL-2H3: IC50: Upslope 0-7 sec. Type of assay: cell-based, rat. How it is done: B. Fluorescence-Based Assay of Store-Operated Calcium Entry in RBL-2H3 Cells.
RBL-2H3 cells are obtained from ATCC and maintained in complete medium with 10% FBS at 37° C./6% CO2.
The day prior to performing the assay, RBL-2H3 cells are plated in 50 μl of complete medium in a 384 well plate. Cells are grown at 37° C./6% CO2 overnight and grow to 50-60% confluence by the next day. On the assay day, 1.5 μM Fluo-4-AM dye (Invitrogen) in complete medium is added and incubated for 1 hour at RT. Cells are washed twice in Ca^2+-free HBSS buffer and 35 μl Ca^2+-free HBSS buffer is added to each well. 10 μl of a test compound prepared in a Ca^2+-free HBSS solution at 4.5× of the desired concentration is added to a well and incubated for 5 minutes at RT. 10 μl of thapsigargin prepared in a Ca^2+-free HBSS solution at 5.5× of the desired concentration (5.5 uM) is added to each well and incubated for an additional 25 minutes. The initial baseline fluorescence signal is measured with a FLIPR^384 (Molecular Devices) plate reader. 5 μl of 12× calcium in HBSS (12 mM) is added and changes in cellular fluorescence are measured with the FLIPR^384 plate reader. In each well, the change in the fluorescent signal as a function of time due to calcium entry into the cell is determined by calculating the difference between the fluorescent signal measured 7 seconds after calcium addition and the initial baseline fluorescence signal at time zero (t=0). This parameter is designated Upslope. The IC50 value is calculated as the concentration at which 50% of the Upslope is inhibited.

Assay [1] deals with T1, recombinant human STIM1 and Orai1 (Homo sapiens, UniProt Q96D31).
T1 construct: c-myc (C); expressed in transfected cells; host or cells: HEK-293 cells stably expressing human STIM1 and human Orai1
T1 sequence (Q96D31 whole entry): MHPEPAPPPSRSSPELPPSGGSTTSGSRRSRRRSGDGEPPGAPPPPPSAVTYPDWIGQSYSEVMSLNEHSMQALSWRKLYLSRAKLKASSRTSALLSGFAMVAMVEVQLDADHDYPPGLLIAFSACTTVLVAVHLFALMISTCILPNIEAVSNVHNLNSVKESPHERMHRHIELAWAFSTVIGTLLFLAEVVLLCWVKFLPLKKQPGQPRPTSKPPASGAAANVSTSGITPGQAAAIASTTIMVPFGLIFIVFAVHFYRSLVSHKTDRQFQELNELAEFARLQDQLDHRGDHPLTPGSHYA
The assay can be described thus: Fluorescence-based assay of store-operated calcium entry in Orai1/STIM1 stable cells (FLIPR). Type of assay: cell-based. As to conditions: for IC50: HEK-293 cells stably expressing human Orai1/STIM1, Fluo-4, Peak-Basal signal, read-out: FLIPR_CRAC: 9 point CRC: O1S1_JR251: IC50: Peak_over_Basal; for FLIPR_CRAC: 9 point CRC: O1S1_JR251: efficacy: printed in the IC50 column in place of a class symbol. As for the experimental part:
A. Fluorescence-Based Assay of Store-Operated Calcium Entry in Orai1/Stim1 Stable Cells.
Cells stably expressing recombinant human STIM1 and Orai1 are generated by transfecting a human Orai1 expression plasmid (pcDNA3.1-Orai1-cmyc) into HEK-293 cells stably overexpressing human STIM1 (Roos et al. 2005 JCB 169(3): 435-445). Colonies of cells stably expressing both STIM1 and Orai1 proteins are selected and then subcloned by limiting dilution. Cells were cultured at 37° C./6% CO2 in complete medium with 10% FBS and appropriate selection markers.
The day prior to performing the assay Orai1/STIM1 stable cells are plated in 50 μL of complete medium at 90-95% confluence in a 384 well plate. Cells are grown at 37° C./6% CO2 overnight. On the day of the assay, 1.5 μM fluo-4-AM (Invitrogen) in complete medium is added to the cells, which are then incubated for 1 hour at RT. Cells are washed once in Ca^2+-free HBSS (Hank's buffered saline solution) and 35 μl of Ca^2+-free HBSS is added to each well. Test compounds are added to wells in a 10 μL Ca^2+-free HBSS solution, prepared at 4.5× the desired final concentration, and incubated for 30 minutes at RT. The initial baseline fluorescence signal is then measured with a FLIPR^384 (Molecular Devices) plate reader. Calcium entry is initiated by adding 5 μl of 10×CaCl2 (10 mM) in HBSS, and changes in cellular fluorescence are measured with the FLIPR^384 plate reader. In each well, the magnitude of the fluorescence signal as a result of calcium entry into the cell is determined by calculating the difference between the peak fluorescence signal measured after calcium addition and the initial baseline fluorescence signal (designated Peak-Basal). IC50 values are typically calculated as the concentration that inhibited 50% of the Peak-Basal signal.

Read-outs that look alike come from different tables or passages of the source.

Take `O=C(Nc1ccccc1Cl)c1ccc(-c2cc3scnc3cc2Cl)s1` [Example 8, N-(2-chlorophenyl)[5-(5-chlorobenzothiazol-6-yl)(2-thienyl)]carboxamide]: the figures for the IC50 (in the assay on RBL-2H3 cells (Rattus norvegicus); in assay [1]) were below 600 nM and 600 to 1200 nM, respectively. For the compound `Cc1cc2cnn(C)c2cc1-c1ccc(C(=O)Nc2ccccc2F)s1` [Example 12], the figures for the IC50 (with RBL-2H3 cells (Rattus norvegicus); in assay [1]) were below 600 nM and 600 to 1200 nM, respectively. In the case of `Cc1cc2cn(C)nc2cc1-c1ccc(C(=O)Nc2ccccc2Cl)s1` [Example 14], the IC50 with RBL-2H3 cells (Rattus norvegicus) was below 600 nM; in assay [1], 600 to 1200 nM.

In the case of `Cc1cc2cn(C)nc2cc1-c1ccc(C(=O)Nc2c(F)cccc2F)s1` [Example 15], the IC50 in assay [1] fell in the range of 600 to 1200 nM. Take `Cc1nc(-c2cc(-c3ccc(C(=O)Nc4c(F)cccc4F)s3)n(C)n2)no1` [Example 16, N-(2,6-difluorophenyl){5-[1-methyl-3-(5-methyl(1,2,4-oxadiazol-3-yl))pyrazol-5-yl](2-thienyl)}carboxamide]: the IC50 in assay [1] was 600 to 1200 nM. In the case of `Cc1nc(-c2cc(-c3ccc(C(=O)Nc4ccccc4F)s3)n(C)n2)no1` [Example 17, N-(2-fluorophenyl){5-[1-methyl-3-(5-methyl(1,2,4-oxadiazol-3-yl))pyrazol-5-yl](2-thienyl)}carboxamide], the IC50 with RBL-2H3 cells (Rattus norvegicus) is below 600 nM; in assay [1] it was 600 to 1200 nM. Consider `Cc1nc(-c2cc(-c3cnc(NC(=O)c4ccccc4Cl)s3)n(C)n2)no1` [Example 18, (2-chlorophenyl)-N-{5-[1-methyl-3-(5-methyl(1,2,4,-oxadiazol-3-yl))pyrazol-5-yl](1,3-thiazol-2-yl)}carboxamide], for which the half-maximal inhibitory concentration (IC50) in assay [1] is above 1200 nM. Take `Cn1c(-c2cnc(NC(=O)c3ccccc3Cl)s2)cc2ccccc21` [Example 22, (2-chlorophenyl)-N-[5-(1-methylindol-2-yl)(1,3-thiazol-2-yl)]carboxamide]: the IC50 was below 600 nM with RBL-2H3 cells (Rattus norvegicus) and above 1200 nM in assay [1]. In the case of `CC(C)n1nc(C(F)(F)F)cc1-c1cnc(NC(=O)c2ccccc2Cl)s1` [Example 25, (2-chlorophenyl)-N-{5-[1-(methylethyl)-3-(trifluoromethyl)pyrazol-5-yl](1,3-thiazol-2-yl)}carboxamide], the half-maximal inhibitory concentration (IC50) in the assay with RBL-2H3 cells (Rattus norvegicus) is 600 to 1200 nM; in assay [1], above 1200 nM. Regarding `Cc1cccnc1C(=O)Nc1ncc(-c2cc(C(F)(F)F)nn2C)s1` [Example 26, (3-methyl(2-pyridyl))-N-{5-[1-methyl-3-(trifluoromethyl)pyrazol-5-yl](1,3-thiazol-2-yl)}carboxamide], in the assay on RBL-2H3 cells, the IC50 is below 600 nM. Moreover, the “FLIPR_CRAC: 9 point CRC: O1S1_JR251: efficacy” value in assay [1] was below 50% efficacy. For `Cn1nc(C(F)(F)F)cc1-c1ncc(NC(=O)c2ccccc2Cl)s1` [Example 29, (2-chlorophenyl)-N-{2-[1-methyl-3-(trifluoromethyl)pyrazol-5-yl](1,3-thiazol-5-yl)}carboxamide], the IC50 (in the assay with RBL-2H3 cells (Rattus norvegicus); in assay [1]) was above 1200 nM in each case. Regarding `Cn1nc(C(F)(F)F)cc1-c1sc(C(=O)Nc2c(F)cccc2F)cc1N` [Example 30, {4-Amino-5-[1-methyl-3-(trifluoromethyl)pyrazol-5-yl](2-thienyl)}-N-(2,6-difluorophenyl)carboxamide], the IC50 in assay [1] was above 1200 nM. As for `Cn1nc(-c2ccccc2)cc1-c1ccc(C(=O)Nc2ncccc2F)s1` [Example 45], the IC50 (in the assay on RBL-2H3 cells (Rattus norvegicus); in assay [1]) was 600 to 1200 nM in each case. As for `Cn1nc(-c2nccs2)cc1-c1ccc(C(=O)Nc2c(F)cccc2F)s1` [Example 49, (2,6-difluorophenyl)[5-(1-methyl-3-(1,3-thiazol-2-yl)pyrazol-5-yl](2-thienyl)]carboxamide], the IC50 (in the assay with RBL-2H3 cells (Rattus norvegicus); in assay [1]) was below 600 nM each time. For `Cn1nc(-c2nccs2)cc1-c1ccc(C(=O)Nc2c(F)cncc2F)s1` [Example 50], the results for the IC50 (in the assay on RBL-2H3 cells (Rattus norvegicus); in assay [1]) were below 600 nM and 600 to 1200 nM, respectively.

As for `Cn1nc(-c2nccs2)cc1-c1ccc(C(=O)Nc2ncccc2F)s1` [Example 52], the IC50 (with RBL-2H3 cells (Rattus norvegicus); in assay [1]) was 600 to 1200 nM throughout. As to `Cn1nc(-c2cccs2)cc1-c1ccc(C(=O)Nc2c(F)cccc2F)s1` [Example 63, N-(2,6-difluorophenyl)[5-(1-methyl-3-(2-thienyl)pyrazol-5-yl](2-thienyl)]carboxamide], the concentration for half-maximal inhibition (IC50) in assay [1] is above 1200 nM. With `Cn1nc(-c2cccs2)cc1-c1ccc(C(=O)Nc2ccccc2Cl)s1` [Example 65], in assay [1], the IC50 is above 1200 nM. Consider `Cn1nc(C(F)(F)F)cc1-c1ccc(NC(=O)c2ccccc2F)s1` [Example 71, (2-fluorophenyl)-N-{5-[1-methyl-3-(trifluoromethyl)pyrazol-5-yl](2-thienyl)}carboxamide], for which the IC50 (in the assay on RBL-2H3 cells (Rattus norvegicus); in assay [1]) was below 600 nM each time. Consider `Cn1nc(C(F)(F)F)cc1-c1cnc(NC(=O)c2ccc(Cl)cc2)s1` [Example 73], for which the IC50 (with RBL-2H3 cells (Rattus norvegicus); in assay [1]) was 600 to 1200 nM throughout. Take `Cn1nc(C(F)(F)F)cc1-c1ccc(NC(=O)c2ccncc2F)s1` [Example 75, (3-fluoro(4-pyridyl))-N-{5-[1-methyl-3-(trifluoromethyl)pyrazol-5-yl](2-thienyl)}carboxamide]: in the assay on RBL-2H3 cells (Rattus norvegicus), the IC50 is above 1200 nM. Further, the “FLIPR_CRAC: 9 point CRC: O1S1_JR251: efficacy” value in assay [1] was below 50% efficacy. Turning to `Cn1nc(C(F)(F)F)cc1-c1cnc(NC(=O)c2ccncc2F)s1` [Example 76], the IC50 (in the assay on RBL-2H3 cells (Rattus norvegicus); in assay [1]) was below 600 nM throughout.

In the case of `Cn1nc(C(F)(F)F)cc1-c1ccc(NC(=O)c2c(F)cncc2F)s1` [Example 77, (3,5-difluoro(4-pyridyl))-N-{5-[1-methyl-3-(trifluoromethyl)pyrazol-5-yl](2-thienyl)}carboxamide], the IC50 is below 600 nM in the assay with RBL-2H3 cells (Rattus norvegicus) and 600 to 1200 nM in assay [1]. In the case of `Cn1nc(C(F)(F)F)cc1-c1cnc(NC(=O)c2c(F)cncc2F)s1` [Example 78], the IC50 with RBL-2H3 cells (Rattus norvegicus) is 600 to 1200 nM; in assay [1], above 1200 nM. For `Cc1cc2c(cc1-c1ccc(NC(=O)c3ccccc3F)s1)OC(F)(F)O2` [Example 79, N-[5-(2,2-difluoro-6-methylbenzo[d]1,3-dioxolen-5-yl)(2-thienyl)](2-fluorophenyl)carboxamide] the same measures were 600 to 1200 nM and above 1200 nM.

For the compound `Cc1cc2c(cc1-c1ccc(NC(=O)c3c(F)cccc3F)s1)OC(F)(F)O2` [Example 80, N-[5-(2,2-difluoro-6-methylbenzo[d]1,3-dioxolen-5-yl)(2-thienyl)](2,6-difluorophenyl)carboxamide], the concentration for half-maximal inhibition (IC50) in the assay on RBL-2H3 cells (Rattus norvegicus) was below 600 nM; in assay [1] it was above 1200 nM.

`Cc1cc2c(cc1-c1cnc(NC(=O)c3c(F)cncc3F)s1)OC(F)(F)O2` [Example 81, (3,5-difluoro(4-pyridyl))-N-[5-(2,2-difluoro-6-methylbenzo[d]1,3-dioxolen-5-yl)(1,3-thiazol-2-yl)]carboxamide]: the figures for the IC50 (with RBL-2H3 cells (Rattus norvegicus); in assay [1]) were below 600 nM and above 1200 nM, respectively. As to “(2,6-difluorophenyl-N-{5-[2-(fluorophenyl)-1-methylpyrazol-5-yl](1,3-thiazol-2-yl)]carboxamide [Example 69]”, the IC50 in the assay on RBL-2H3 cells is below 600 nM; in assay [1], 600 to 1200 nM.

The IC50 is the concentration at which inhibition is half-maximal.

For the origin of these results see patent publication US9079891B2, “Compounds that modulate intracellular calcium” (CALCIMEDICA, INC., priority 2010, dated 2015).
